Columns and labels:
[1] = target: T1, Met repressor (Escherichia coli) (UniProt C3SIU2); assay: Binding affinity to Escherichia coli metJ assessed as protein dimer-DNA complex formation using F-metC operator DNA by fluorescence anisotropy relative to 4-((((2R,3S,4R,5R)-5-(6-amino-9H-purin-9-yl)-3,4-dihydroxy-tetrahydrofuran-2-yl)methyl)(methyl)amino)-N-propylbutanamide
T1 sequence (whole entry): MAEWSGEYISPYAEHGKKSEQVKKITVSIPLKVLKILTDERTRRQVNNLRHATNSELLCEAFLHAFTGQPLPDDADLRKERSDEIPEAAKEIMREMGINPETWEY

[2] = target: T1, Met repressor (Escherichia coli); assay: Binding affinity to Escherichia coli metJ assessed as protein dimer-DNA complex formation using F-metC operator DNA by fluorescence anisotropy relative to 5'-[{(3''S)-4''-Benzylamino-3''-amino-4''-oxobutyl}dimethylamino]-5'-deoxyadenosine iodide ditrifluoroacetic acid salt
[3] = target: T2, Met repressor (Escherichia coli, UniProt C3SIU2); assay: Binding affinity to Escherichia coli metJ in presence of operator DNA complex by filter binding study
T2 sequence (C3SIU2 whole entry): T1 sequence (whole entry)

Structure (SMILES): CN(CCCC(=O)NCCCCCCNC(=O)CCCN(C)C[C@H]1O[C@@H](n2cnc3c(N)ncnc32)[C@H](O)[C@@H]1O)C[C@H]1O[C@@H](n2cnc3c(N)ncnc32)[C@H](O)[C@@H]1O
- fold change (FC) [1]: 21

Structure (SMILES): CN(CCCC(=O)NCCCCn1nnc2c1CCCCCC2OCCNC(=O)CCCN(C)C[C@H]1O[C@@H](n2cnc3c(N)ncnc32)[C@H](O)[C@@H]1O)C[C@H]1O[C@@H](n2cnc3c(N)ncnc32)[C@H](O)[C@@H]1O (stereo partly specified)
- fold change (FC) [1]: 13

Structure (SMILES): CN(CCCC(=O)NCCOC1CCCCCc2c1nnn2CCNC(=O)CCCN(C)C[C@H]1O[C@@H](n2cnc3c(N)ncnc32)[C@H](O)[C@@H]1O)C[C@H]1O[C@@H](n2cnc3c(N)ncnc32)[C@H](O)[C@@H]1O (mixture of isomers)
- fold change (FC) [1]: 9.1

Structure (SMILES): C[N+](C)(CC[C@H](N)C(=O)NCc1ccc(CNC(=O)[C@@H](N)CC[N+](C)(C)C[C@H]2O[C@@H](n3cnc4c(N)ncnc43)[C@H](O)[C@@H]2O)cc1)C[C@H]1O[C@@H](n2cnc3c(N)ncnc32)[C@H](O)[C@@H]1O (mixture of isomers)
- fold change (FC) [2]: 2.4

Structure (SMILES): C[N+](C)(CC[C@H](N)C(=O)NCc1cccc(CNC(=O)[C@@H](N)CC[N+](C)(C)C[C@H]2O[C@@H](n3cnc4c(N)ncnc43)[C@H](O)[C@@H]2O)c1)C[C@H]1O[C@@H](n2cnc3c(N)ncnc32)[C@H](O)[C@@H]1O (mixture of isomers)
- fold change (FC) [2]: 3.6

Structure (SMILES): C[S+](CC[C@H](N)C(=O)[O-])C[C@H]1O[C@@H](n2cnc3c(N)ncnc32)[C@H](O)[C@@H]1O (stereo partly specified) [ADEMETIONINE]
- Kd [3]: 4 nM

Reference: ChEMBL document CHEMBL1938273, “Design, synthesis and in vitro evaluation of novel bivalent S-adenosylmethionine analogues” (Bioorg Med Chem Lett, 2012)
